Series [1] deals with 22RV1 prostate cancer cells. Briefly: Anti-proliferative activity against resistant 22RV1 cells expressing AR-V7. The series is classed as cell-based. Here is the method: (§1) The cells were then digested with trypsin and counted using an automated cell counter to determine cell density. The cell suspension was diluted to the desired density in growth medium. Subsequently, 100 μL of the cell suspension was seeded into 96-well plates and incubated at 37° C. with 5% CO2 for 24 hours. 10 μL of drug solution (including 3-fold serial dilutions of compounds or DMSO) was added to each well, and the plates were incubated at 37° C. with 5% CO2 for 6 days. Prior to measurement, the assay plates were equilibrated to room temperature. 40 μL of CellTiter-Glo® reagent was added to each well. The plates were mixed on an orbital shaker for 2 minutes to induce cell lysis. After incubation at room temperature for 60 minutes to stabilize the luminescence signal, the plates were read on an Envision plate reader.
The experimental procedure was essentially the same as that for LNCaP cells.

Series [2] concerns the target T1, AR (Homo sapiens, UniProt P10275, T878A).
T1 construct: endogenous in cells; host or cells: LNCaP
T1 sequence (P10275 1-920 T878A): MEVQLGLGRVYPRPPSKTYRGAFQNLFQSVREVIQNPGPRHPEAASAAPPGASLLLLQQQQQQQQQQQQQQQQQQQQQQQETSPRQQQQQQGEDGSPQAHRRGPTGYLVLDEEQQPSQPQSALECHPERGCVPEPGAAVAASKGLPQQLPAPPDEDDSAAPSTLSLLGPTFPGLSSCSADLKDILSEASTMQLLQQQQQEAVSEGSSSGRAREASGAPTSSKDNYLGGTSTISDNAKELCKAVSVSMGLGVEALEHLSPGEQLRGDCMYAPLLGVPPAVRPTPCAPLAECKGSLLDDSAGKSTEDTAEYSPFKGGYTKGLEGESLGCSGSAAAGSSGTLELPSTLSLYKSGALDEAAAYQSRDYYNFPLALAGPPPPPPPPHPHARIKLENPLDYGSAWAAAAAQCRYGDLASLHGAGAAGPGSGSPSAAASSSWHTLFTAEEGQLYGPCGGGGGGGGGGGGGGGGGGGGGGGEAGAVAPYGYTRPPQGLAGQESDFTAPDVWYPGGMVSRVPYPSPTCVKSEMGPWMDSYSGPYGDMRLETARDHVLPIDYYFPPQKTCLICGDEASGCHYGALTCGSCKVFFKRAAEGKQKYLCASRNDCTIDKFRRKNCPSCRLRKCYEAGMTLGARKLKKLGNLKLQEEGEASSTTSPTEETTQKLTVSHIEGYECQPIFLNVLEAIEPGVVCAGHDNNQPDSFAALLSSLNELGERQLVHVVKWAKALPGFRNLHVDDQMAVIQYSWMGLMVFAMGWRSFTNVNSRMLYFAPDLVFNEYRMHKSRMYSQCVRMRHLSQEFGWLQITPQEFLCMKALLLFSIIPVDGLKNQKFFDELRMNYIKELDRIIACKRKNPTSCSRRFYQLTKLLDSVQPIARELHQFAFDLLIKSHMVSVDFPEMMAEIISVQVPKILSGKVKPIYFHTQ
Briefly: In vitro AR degradation activity test in LNCaP cells (ELISA, OD450). As to conditions: LNCaP cells, 24 hours. The series is classed as cell-based. Here is the method: The cells were then digested with trypsin and counted using an automated cell counter. The cell suspension was diluted to the desired density in growth medium. The cell suspension was then seeded into 96-well plates at 100 μL per well, and the plates were incubated at 37° C. with 5% CO2 for 24 hours. The compounds were then diluted 200-fold to the final concentration with DMSO or 3-fold to the final concentration with culture medium. 50 μL of compound solution was transferred to the 96-well plate and incubated at 37° C. for 24 hours. After 24 hours of incubation, the cell plate was washed 3 times with DPBS, 100 μL of 1× lysis buffer was added to each well, and placed on ice for 30 minutes. The supernatant was collected. The protein in the cell lysate samples was quantified and then diluted to the required concentration. 100 μL of cell lysate sample was added to the appropriate wells, sealed with tape and pressed firmly on top of the wells, and the plate was incubated at 37° C. for 2 hours. The plate contents were then discarded, and washed 4 times with 1× wash buffer, 200 μL per well each time. 100 μL of reconstituted detection antibody was then added, the plate was sealed with tape and incubated at 37° C. for 1 hour. The aspiration/wash step was then repeated, 100 μL of reconstituted HRP-Linked secondary antibody was added to each well, the plate was sealed with tape and incubated at 37° C. for 30 minutes. The aspiration/wash step was then repeated, 100 μL of substrate solution was added to each well and incubated at 37° C. for 10 minutes, and finally 100 μL of stop solution was added to each well. The plate was gently tapped to ensure thorough mixing, and the OD450 nm was recorded.
Degradation rate (%)=(OD450_max−OD450_sample)/(OD450_max−OD450_min)×100,plotted using GraphPad Prism 5 software, and IC50 is calculated using SPSS software.

Series [3] concerns the target T2, wild-type AR (Homo sapiens, UniProt P10275).
T2 construct: expressed in transfected cells; host or cells: HEK293
T2 sequence (P10275 1-920): T1 sequence (P10275 1-920 T878A) with A878T
As to the kind of experiment: Wild-type AR antagonist activity test (luciferase reporter in HEK293 cells). Type of series: cell-based. The following applies: for IC50: HEK293 cells, luciferase expression, DHT 1.5 nM, 24 hours; for AR antagonist activity, times higher than that of the control enzalutamide: ratio to enzalutamide IC50. Here is the method:
HEK293 cells were cultured in DMEM containing 10% fetal bovine serum (FBS) at 37° C. with 5% CO2. The cells were then digested with trypsin and counted. A 10 μL/well transfection solution was prepared in opti-MEM containing 5 ng androgen receptor clone, 100 ng pGL4.36 vector, and 315 nL fugene. […] The diluted cell suspension was seeded into 96-well plates at 90 μL (40,000 cells/well), and the plates were incubated for 24 hours. Then, 10 μL of drug solution (including gradient diluted compounds or DMSO) was added, and the plates were incubated for 30 minutes. […] After 24 hours of incubation, 100 μL of Steady-Glo was added to each well of the plate, the plate was shaken at room temperature for 20 minutes, and read on an Envision.
(In general: A reporter such as luciferase makes a cellular process visible.)

For series [4], the system named is LNCaP cells. Briefly: In vitro LNCaP cell proliferation inhibition test (CellTiter-Glo). The series is classed as cell-based. As to conditions: for Maximum Inhibition (%) / IC50: 6 days; for IC50: Homo sapiens, read-out: Anti-proliferative activity IC50. The procedure: as §1
Background: ATP-based viability assays read luminescence as a measure of living cells.

A short description of series [5]: In vivo pharmacokinetics in rats after oral gavage. The following applies: male SD rats, PO 10 mg/kg; for AUC(0-inf) / AUC(0-t) / half-life / Cmax / tmax: rat, plasma; for Cmax: read-out: Cmax; for tmax: read-out: tmax. Here is the method: Male SD rats were randomly divided into 6 groups, 3 rats per group. The rats were fasted but not water-deprived for 12-14 h one day before dosing. The test samples were then dissolved in a solvent of 5% DMSO+30% PEG400+65% (0.5% MC) and administered by gavage at 10 mg/kg. Food was provided 4 h after dosing. Blood samples (0.10 mL) were collected via the orbital sinus at 0, 15, 30 min, 1, 2, 4, 6, 8, and 24 h, with EDTA-K2 as anticoagulant. Blood samples were placed on ice after collection and centrifuged to separate plasma within 30 minutes (centrifugation conditions: 5000 rpm, 10 minutes, 4° C.). 50.0 μL of plasma sample (taken from −80° C. freezer, thawed naturally at room temperature and vortexed for 30 seconds) was added to a 1.5 mL centrifuge tube, followed by addition of 500 μL internal standard solution (methanol (TEDIA, HPLC grade), acetonitrile (TEDIA, HPLC grade), formic acid (FA, ACROS ORGANICS, HPLC grade), water was laboratory-made ultrapure water (100.0 ng·mL−1)). The mixture was vortexed for 60 seconds and centrifuged for 3 minutes (centrifugal force 12000 rpm). 100 μL of the supernatant was transferred to a 96-well injection plate containing an equal volume of water, mixed by shaking, and analyzed by LC-MS/MS with an injection volume of 10 μL. The data acquisition and control system software was Analyst 1.5.1 software (Applied Biosystem). The chromatographic sample peaks were integrated automatically. The ratio of sample peak area to internal standard peak area was used as an indicator for regression with sample concentration.
The pharmacokinetic parameters of representative compounds of the present invention were tested in male SD rats after oral gavage administration at 10 mg/kg according to the above conventional method to examine the pharmacokinetic characteristics of the compounds of the present invention in rats.

Residue numbers refer to the chain shown, from its start.

As for `CC(O)c1cc(C(=O)N[C@@H](C)Cn2ccc(-c3ccc(C#N)c(Cl)c3)n2)[nH]n1` (some centres unmarked) [Darolutamide, darolutamide], the “Activity against tumor cells expressing AR splice variants” value in series [1] (22RV1 cells, in words) is given as “no activity”. In addition, the IC50 in series [1] (Homo sapiens, 22RV1 cells expressing AR-V7 splice variant, read-out: Antiproliferative activity IC50) was greater than 10000 nM.
In turn, `Cc1cn(C2=CCC3C4CC=C5C[C@@H](NC(=O)c6ccc([N+](=O)[O-])cc6)CC[C@]5(C)C4CC[C@]23C)cn1` (stereo partly drawn) [Compound 34, N-((3S,10R,13S)-17-(4-methyl-1H-imidazol-1-yl)-10,13-dimethyl-2,3,4,7,8,9,10,11,12,13,14,15-dodecahydro-1H-cyclopenta[a]phenanthren-3-yl)-4-nitrobenzamide] came in with a 50% degradation concentration (DC50) in series [2] of 2600 nM. For the same compound, in series [3], the IC50 was determined as 70.6 nM and the “AR antagonist activity, times higher than that of the control enzalutamide” value is listed as 6.2 times.
As to `C[C@]12CC[C@H](NC(=O)c3ccncc3)CC1=CCC1C2CC[C@]2(C)C(n3ccnc3)=CCC12` (stereo partly drawn) [Compound 17, N-((3S,10R,13S)-17-(1H-imidazol-1-yl)-10,13-dimethyl-2,3,4,7,8,9,10,11,12,13,14,15-dodecahydro-1H-cyclopenta[a]phenanthren-3-yl)isonicotinamide], in series [4], the “Maximum Inhibition (%)” value came to 96.99% and the IC50 worked out at 317 nM. The “Anti-proliferative activity, fold improvement compared to abiraterone” value in series [4] (ratio to abiraterone IC50) came to 8.8 fold. Further, in series [5], the Kel was determined as 0.112 h⁻¹, the MRTPO is reported as 15.5 h, the AUC(0-inf) amounted to 65600 ng·h/mL and the AUC(0-t) is 28800 ng·h/mL. Further, in series [5], the half-life was 10 h, the Cmax is 4500 ng/mL and the tmax is 2 h. For the same compound, the DC50 in series [2] is 1980 nM.
Take `Cc1cn(C2=CCC3C4CC=C5C[C@@H](NC(=O)c6ccnnc6)CC[C@]5(C)C4CC[C@]23C)cn1` (some centres unmarked) [Compound 13]: in series [4], the “Maximum Inhibition (%)” value was 96.97% and the IC50 came out at 466 nM. In series [4] (in words), the “Anti-tumor activity and efficacy compared to enzalutamide” value is “comparable anti-tumor activity but significantly superior anti-tumor efficacy compared to enzalutamide”. Besides, the DC50 in series [2] was 2080 nM. Moreover, in series [3], the IC50 is 244 nM and the “AR antagonist activity, times higher than that of the control enzalutamide” value came out at 1.8 times.
`C[C@]12CC[C@H](NC(=O)c3ccncc3)CC1=CCC1C2CC[C@]2(C)C(n3cnc4ccccc43)=CCC12` (stereo partly drawn) [Compound 8, N-((3S,10R,13S)-17-(1H-benzo[d]imidazol-1-yl)-10,13-dimethyl-2,3,4,7,8,9,10,11,12,13,14,15-dodecahydro-1H-cyclopenta[a]phenanthren-3-yl)isonicotinamide]: in series [4], the “Maximum Inhibition (%)” value worked out at 104.5% and the IC50 is 763 nM. Besides, it took 3760 nM to reach half-maximal degradation in series [2] (DC50).
With `C[C@]12CC[C@H](NC(=O)c3ccnnc3)CC1=CCC1C2CC[C@]2(C)C(n3ccnc3)=CCC12` (some centres unmarked) [Compound 16], in series [4], the “Maximum Inhibition (%)” value worked out at 92.41% and the IC50 is 382 nM. Besides, in series [5], the Kel came out at 0.296 h⁻¹, the MRTPO is 6.25 h, the AUC(0-inf) was 37500 ng·h/mL and the AUC(0-t) came to 37400 ng·h/mL. For the same compound, in series [5], the half-life is 2.36 h, the Cmax was determined as 3240 ng/mL and the tmax was found to be 4 h. Further, the DC50 in series [2] was 2760 nM.

As a reminder, the IC50 is the concentration needed to halve the response being measured. For orientation: DC50 means the midpoint of the concentration-degradation curve. For orientation: AUC(0-inf) means total exposure, with the tail of the curve extrapolated. High values mean high exposure, low ones low exposure. By AUC(0-t) is commonly meant exposure summed from dosing to a finite time, without extrapolation to infinity. Low readings indicate less exposure, high ones more exposure. What is called half-life is the time in which the quantity being followed falls by half. In general, Cmax refers to the highest concentration seen after dosing.

The values are drawn from patent US20250073249A1, “STEROID COMPOUND, AND PREPARATION METHOD THEREFOR AND USE THEREOF” (SHANGHAI INSTITUTE OF MATERIA MEDICA, CHINESE ACADEMY OF …, priority 2022, published 2025).
